The target in one assay is T1, HIV protease (Human immunodeficiency virus type 1 group M subtype B, UniProt P04585).
T1 construct: HIV protease was expressed in E. coli; made in house; host or cells: E. coli (plasmid pBRT1 prt+)
Nature of the assay: Recombinant HIV Protease HPLC Assay. Particulars: 37°, 30 min, pH 5.5. In kind it is biochemical. The text has this:
The procedure is based on the capacity of the test compound to inhibit enzymatic cleavage by HIV protease of a decapeptide (the substrate) having an amino acid sequence which includes a known HIV protease cleavage site of a HIV polyprotein; see H. G. Krausslich et al., Proc. Natl. Acad. Sci. USA, 86, 807 (1989). Details of this assay together with the results obtained for exemplified compounds of formula 1 are described in the examples hereinafter.
Recombinant HIV Protease HPLC Assay:
Enzyme: HIV protease was expressed in E. coli {construct pBRT1 prt^+, see W. G. Farmerie et al., Science, 236, 305 (1987)}, according to the following protocol:
E. coli cells containing the pBRT1 prt^+ plasmid were used to inoculate a seed culture media composed of Luria-Bertani Broth containing 100 μg/mL of ampicillin. Flasks were incubated at 37° under agitation for 17 h. Production flasks containing sterile M9 broth, supplemented with 100 μg/mL of ampicillin, were inoculated at a level of 1% (v/v) using the seed culture described above. Total volume in each production flask was 500 mL in a 2 L Erlenmeyer flask. Flasks were incubated at 37° under agitation until a cell concentration corresponding to an optical density ([…]) of 0.6 was reached (no dilution). This time span was routinely 3-4 h. Flasks were then supplemented with 5 mM isopropylthiogalactoside (IPTG, Research Organics, Cleveland, Ohio, USA) and incubation was continued until the cell concentration reached an optical density of 0.2 at 16-fold dilution. Flasks were then supplemented with 1 mM phenylmethylsulfonyl fluoride (PMSF) and rapidly chilled to 4°. The bacterial cells were recovered by centrifugation at 4°. The wet pellet was stored at -70°.
All steps below were performed at 4° unless otherwise indicated. Thawed cells were mixed with buffer A {50 mM tris(hydroxymethyl)[…] HCl (Tris-HCl, pH 7.4); 0.6 mM ethylenediaminetetraacetic acid (EDTA); 0.375M NaCl, 0.2% Nonidet P-40® (BDH Chemicals Ltd., Poole, UK); 1 mM PMSF}, at a ratio of one part cells to nine parts buffer A. Diatomaceous earth (Celite 545®, John Manville, Lompoc, Calif. USA) was added at a ratio of two parts to one part of wet cell weight. The resulting slurry was homogenized at high speed (ca. 20,000 rpm) on a Waring® industrial blender for 8×15 sec. pulses. Cell debris/Celite® was collected by centrifugation and the resulting pellet was extracted with 4.5 parts of buffer A to one part wet solids using the homogenization procedure described above. Supernatants from both homogenization steps were combined and soluble protein was precipitated by the addition of solid (NH4)2 SO4 to yield a final concentration of 75% saturation. This mixture was agitated for 60 min and the precipitate was recovered by centrifugation. The resulting pellet was suspended in buffer B {50 mM Tris-HCl, pH 8; 30 mM NaCl; 1 mM DL-dithiothreitol (DTT); 1 mM EDTA; 1 mM PMSF; 10% glycerol}, and dialyzed for 18 h against the same buffer.
An aliquot of the dialyzed extract containing 150 mg of the protein was loaded onto a Sephadex A25® anion exchange column (Pharmacia, Uppsala, Sweden) with bed dimensions of 70 cm length and 2.5 cm diameter. The sample was eluted isocratically with buffer B at a linear flow rate of 10 cm/h. Fractions containing HIV protease activity (see below for assay description) were combined, and soluble protein was precipitated by the addition of saturated aqueous (NH4)2 SO4 to yield a total (NH4)2 SO4 concentration of 85% saturation. Precipitated protein was removed by centrifugation and the resulting pellet was dissolved in buffer C {50 mM 2-(4-morpholino)ethanesulfonic acid (MES), pH 5.5; 150 mM NaCl; 1 mM DTT; 1 mM EDTA; 10% glycerol}. This preparation was dialyzed for 18 h against buffer C, and then frozen at -70°. All crude extracts were purified by chromatography in aliquots containing 150 mg of protein in the same manner as described above. […]

The test system of assay [1] is HIV (H9/HTLV-IIIB) in C8166 cells. Nature of the assay: plaque assay: inhibition of syncytia formation in HIV-infected C8166 cells. In kind it is cell-based. Particulars: Human immunodeficiency virus 1, IIIB, 72 h, 50% inhibition of syncytia formation. The text has this: Typical of such procedures are those described by S. Harada and N. Yamamoto, Jpn. J. Cancer Res. (Gann), 76, 432 (1985), and S. Harada et al., Science, 229, 563 (1985). An assay based on the latter procedures is described in the examples hereinafter.
The following protocol, used for screening antiviral effects of the compounds of formula 1, is adapted from a plaque assay utilizing HTLV-I transformed cells, previously reported by Harada et al., supra. HTLV-I transformed cells are used because of the rapidity with which HIV will replicate in the cells.
1. The test compound is dissolved in dimethylsulfoxide to a concentration of 5 mg/mL. The resultant solution can be stored at 4° until use.
2. The resultant solution is diluted in RPMI 1640 (Gibco Laboratories, St. Lawrence, Mass., USA) to four times (4×) the final concentration which is to be tested. Once diluted in RPMI 1640, the solution is used in the cell culture assay within 4 h.
3. The 4× solution (50 μL) is added to triplicate wells of a 96 well flat bottomed microtiter plate. RPMI (50 μL) also is added to control wells.
4. C8166 cells (5×10^4) in 50 μL of HEPES-buffered RPMI 1640 (pH=7.2), 10% heat inactivated fetal calf serum (FCS), […] gentamicin (complete media) are added to all wells.
5. Fifty times TCID50 of H9/HTLV-IIIB stock (stored in liquid nitrogen as cell culture supernatant in 50% FCS) in 100 μL of complete media is added to all wells. Infectious titer of virus stocks are as previously determined by end point dilution on C8166 cells. Titer of stocks are stable for 6-12 months when stored at -193°.
6. Microtiter plates are then placed on level shelves of a 37°, 5% CO2 humidified incubator for 72 h.
7. Plates are then removed and centers of syncytia are counted in each well by low power phase contrast light microscopy. […] Control wells should have between 25 and 75 centers of syncytia per well.
8. Percent inhibition of syncytia formation is calculated by the formula: [formula]
The concentration of the test compound which causes a 50% inhibition of syncytia formation, i.e. the EC50, is determined by using the technique of serial dilution of the working solution at step 3 and by using non-linear regression analysis (SAS® program) to graphically plot the observed percent inhibition of syncytia formation against the various concentrations of the test compound.

pEC50, pIC50: −log10 of the molar value.

For orientation: pIC50 means the IC50 on a negative log10 scale, so that one unit is a factor of ten. As usually defined, the pEC50 is −log10 of the EC50, conventionally taken in molar units. A higher pEC50 goes with a low EC50. Take `CC(C)[C@H](NC(=O)OCc1ccccc1)C(=O)N[C@@H](Cc1ccccc1)[C@H](O)CN1CC[C@@H](Sc2ncccn2)C[C@H]1C(=O)NC(C)(C)C` [Table IV, entry 35, N-tert-butyl-1-{3(S)-{{N-(benzyloxycarbonyl)valyl}amino}-2(R)-hydroxy-4-phenylbutyl}-4(R)-(2-pyrimidinylthio)piperidine-2(S)-carboxamide]: the pIC50 on HIV protease (Table IV) is 8.43. This compound gave a pEC50 in assay [1] (Table IV) of 7.82.
On the same counts, the results for `CC(C)[C@H](NC(=O)OCc1ccccc1)C(=O)N[C@@H](Cc1ccccc1)[C@H](O)CN1CC[C@@H](c2ccccc2)C[C@H]1C(=O)NC(C)(C)C` [Table IV, entry 10, N-tert-butyl-1-{3(S)-{{N-(benzyloxycarbonyl)valyl}amino}-2(R)-hydroxy-4-phenylbutyl}-4(R)-phenylpiperidine-2(S)-carboxamide] are 8.51 and 7.05.
Consider `CC(C)[C@H](NC(=O)c1ccc2ccccc2n1)C(=O)N[C@@H](Cc1ccccc1)[C@H](O)CN1CC[C@@H](SCc2ccccn2)C[C@H]1C(=O)NC(C)(C)C` [Table V, entry 9, N-tert-butyl-1-{2(S)(R)-hydroxy-4-phenyl-3(S)-{{N-(2-quinolylinylcarbonyl)valyl}amino}butyl}-4(R)-{(2-pyridinylmethyl)thio}piperidine-2-carboxamide], for which the negative logarithm of the IC50 (pIC50) on HIV protease (Table V) was 8.38. Besides, the pEC50 in assay [1] (Table V) is 8.30.
Take `C[C@@H](O)[C@H](NC(=O)c1ccc2ccccc2n1)C(=O)N[C@@H](Cc1ccccc1)[C@H](O)CN1CC[C@@H](S(=O)(=O)c2ccccc2)C[C@H]1C(=O)NC(C)(C)C` [Table VI, entry 6, N-tert-butyl-1-{2(R)-hydroxy-4-phenyl-3(S)-{{N-(2-quinolylinylcarbonyl)threonyl}amino}butyl}-4(R)-(phenylsulfonyl)piperidine-2(S)-carboxamide]: the pIC50 on HIV protease (Table VI) is 8.59. Further, the pEC50 in assay [1] (Table VI) was 7.21.
For the compound `Cc1ccnc(O[C@@H]2CCN(C[C@@H](O)[C@H](Cc3ccccc3)NC(=O)[C@@H](NC(=O)c3ccc4ccccc4n3)C(C)C)[C@H](C(=O)NC(C)(C)C)C2)n1` [Table V, entry 12, N-tert-butyl-1-{2(S)(R)-hydroxy-4-phenyl-3(S)-{{N-(2-quinolylinylcarbonyl)valyl}amino}butyl}-4(R)-{(4-methyl-2-pyrimidinyl)oxy}piperidine-2-carboxamide], at HIV protease (Table V), the negative-log IC50 (pIC50) was 8.35. Moreover, the pEC50 in assay [1] (Table V) was 7.36.
As to `Cc1cc(C)c(OCC(=O)N[C@@H](Cc2ccccc2)[C@H](O)CN2CC[C@@H](Sc3ccncc3)C[C@H]2C(=O)NC(C)(C)C)c(C)c1` [Table VII, entry 2, N-tert-butyl-1-{3(S)-{{(2,4,6-trimethylphenoxy)acetyl}amino}-2(R)-hydroxy-4-phenylbutyl}-4(R)-(4-pyridinylthio)piperidine-2(S)-carboxamide], the pIC50 at HIV protease (Table VII) is 8.43. Besides, the negative logarithm of the EC50 (pEC50) in assay [1] (Table VII) was 7.33.
Regarding `CC(C)[C@H](NC(=O)OCc1ccccc1)C(=O)N[C@@H](Cc1ccccc1)[C@H](O)CN1CC[C@@H](Cc2ccccc2)C[C@H]1C(=O)NC(C)(C)C` [Table IV, entry 13], at HIV protease (Table IV), the pIC50 is 8.39. Besides, the negative-log EC50 (pEC50) in assay [1] (Table IV) was 7.40.
`Cc1cccc(C)c1OCC(=O)N[C@@H](Cc1ccccc1)[C@H](O)CN1CC[C@@H](SCc2cccnc2)C[C@H]1C(=O)NC(C)(C)C` [Table VII, entry 1, N-tert-Butyl-1-{3(S)-{{(2,6-dimethylphenoxy)acetyl}amino}-2(R)-hydroxy-4-phenylbutyl}-4(R)-{(3-pyridinylmethyl)thio}piperidine-2(S)-carboxamide]: the negative-log IC50 (pIC50) at HIV protease (Table VII) is 8.57. This compound gave a pEC50 in assay [1] (Table VII) of 7.46.
As to `CC(C)(C)NC(=O)[C@@H]1C[C@H](c2ccccc2)CCN1C[C@@H](O)[C@H](Cc1ccccc1)NC(=O)[C@H](CC(N)=O)NC(=O)OCc1ccccc1` [Table IV, entry 12], the negative-log IC50 (pIC50) on HIV protease (Table IV) was 8.20. Moreover, in assay [1] (Table IV), the pEC50 is 6.82.
As for `Cc1cc(C)nc(S[C@@H]2CCN(C[C@@H](O)[C@H](Cc3ccccc3)NC(=O)[C@H](CC(N)=O)NC(=O)c3ccc4ccccc4n3)[C@H](C(=O)NC(C)(C)C)C2)n1` [Table VI, entry 2, N-tert-butyl-1-{2(R)-hydroxy-4-phenyl-3(S)-{{N-(2-quinolylinylcarbonyl)asparaginyl}amino}butyl}-4(R)-{(4,6-dimethyl-2-pyrimidinyl)}thiopiperidine-2(S)-carboxamide], on HIV protease (Table VI), the negative-log IC50 (pIC50) is 8.66. In addition, the negative logarithm of the EC50 (pEC50) in assay [1] (Table VI) is 7.38.
On to `CC(C)[C@H](NC(=O)c1ccc2ccccc2n1)C(=O)N[C@@H](Cc1ccccc1)[C@H](O)CN1CC[C@@H](Sc2ccccc2)C[C@H]1C(=O)NC(C)(C)C` [Table IV, entry 20, N-tert-butyl-1-{2(R)-hydroxy-4-phenyl-3(S)-{(N-(2-quinolinylcarbonyl)valyl}amino}butyl}-4(R)-(phenylthio)piperidine-2(S)-carboxamide], for which, at HIV protease (Table IV), the pIC50 is 8.51. Also, in assay [1] (Table IV), the pEC50 was 7.92.
With `Cc1cc(C)nc(O[C@@H]2CCN(C[C@@H](O)[C@H](Cc3ccccc3)NC(=O)[C@@H](NC(=O)c3ccc4ccccc4n3)C(C)C)[C@H](C(=O)NC(C)(C)C)C2)n1` [Table V, entry 11, N-tert-butyl-1-{2(S)(R)-hydroxy-4-phenyl-3(S)-{{N-(2-quinolylinylcarbonyl)valyl}amino}butyl}-4(R)-{(4,6-dimethyl-2-pyrimidinyl)oxy}piperidine-2-carboxamide], on HIV protease (Table V), the pIC50 was 8.40. This compound showed a negative logarithm of the EC50 (pEC50) in assay [1] (Table V) of 7.70.

The values are drawn from patent publication US5614533A, “Substituted pipecolinic acid derivatives as HIV protease inhibitors” (Bio-Mega/Boehringer Ingelheim Research, Inc., priority 1994, dated 1997).
